From publication PMC5218480 (PLoS ONE, 2017)

System: MV-4-11 cells
Assay: Gene expression microarray analysis (Affymetrix PrimeView) and GSEA
Type: cell-based, human
Parameters: RFU PODN (11730768_x_at) / Fold change /veh PODN (11730768_x_at) / RFU LINC00158 (11744669_a_at) / Fold change /veh LINC00158 (11744669_a_at) / RFU DUSP10 (11751237_a_at) / Fold change /veh DUSP10 (11751237_a_at) / RFU ID3 (11757404_x_at) / Fold change /veh ID3 (11757404_x_at) / RFU PLEKHG5 (11737974_s_at) / Fold change /veh PLEKHG5 (11737974_s_at) / RFU LRRC4B (11730491_at) / Fold change /veh LRRC4B (11730491_at) / RFU GIMAP4 (11747438_a_at) / Fold change /veh GIMAP4 (11747438_a_at) / RFU KRT8 (11758183_x_at) / Fold change /veh KRT8 (11758183_x_at) / RFU CNN1 (11734310_a_at) / Fold change /veh CNN1 (11734310_a_at) / RFU VPS37D (11726825_at) / Fold change /veh VPS37D (11726825_at) / RFU C10orf10 (11716522_x_at) / Fold change /veh C10orf10 (11716522_x_at) / RFU KIR2DL2 /// KIR2DL4 /// KIR2DL5A /// KIR2DL5B /// KIR2DS1 /// KIR2DS2 /// KIR2DS3 /// KIR2DS4 /// KIR3DL3 /// KIR3DL3 /// KIR3DS1 (11738374_at) / Fold change /veh KIR2DL2 /// KIR2DL4 /// KIR2DL5A /// KIR2DL5B /// KIR2DS1 /// KIR2DS2 /// KIR2DS3 /// KIR2DS4 /// KIR3DL3 /// KIR3DL3 /// KIR3DS1 (11738374_at) / RFU C1QL1 (11718748_at) / Fold change /veh C1QL1 (11718748_at) / RFU TMPRSS4 (11747572_a_at) / Fold change /veh TMPRSS4 (11747572_a_at) / RFU HAMP (11756126_x_at) / Fold change /veh HAMP (11756126_x_at) / RFU RNFT2 (11725882_a_at) / Fold change /veh RNFT2 (11725882_a_at) / RFU NR4A2 (11747474_a_at) / Fold change /veh NR4A2 (11747474_a_at) / RFU ABCC12 (11746883_a_at) / Fold change /veh ABCC12 (11746883_a_at) / RFU TMEM136 (11760407_x_at) / Fold change /veh TMEM136 (11760407_x_at) / RFU CLDN22 /// WWC2 (11732394_at) / Fold change /veh CLDN22 /// WWC2 (11732394_at) / RFU HLA-DPB1 (11760878_x_at) / Fold change /veh HLA-DPB1 (11760878_x_at) / RFU SPINT1 (11716480_a_at) / Fold change /veh SPINT1 (11716480_a_at) / RFU GAP43 (11754022_s_at) / Fold change /veh GAP43 (11754022_s_at) / RFU A4GNT (11735810_at) / Fold change /veh A4GNT (11735810_at) / RFU PRB3 (11715151_x_at) / Fold change /veh PRB3 (11715151_x_at) / RFU TUBB4B (11761932_at) / Fold change /veh TUBB4B (11761932_at) / RFU CAPN14 (11732068_a_at) / Fold change /veh CAPN14 (11732068_a_at) / RFU TMCC2 (11721928_a_at) / Fold change /veh TMCC2 (11721928_a_at) / RFU IRGQ (11745062_a_at) / Fold change /veh IRGQ (11745062_a_at) / RFU FAM174B (11720279_a_at) / Fold change /veh FAM174B (11720279_a_at) / RFU TMPRSS4 (11748680_a_at) / Fold change /veh TMPRSS4 (11748680_a_at) / RFU FAM212B (11763350_a_at) / Fold change /veh FAM212B (11763350_a_at) / RFU PLEKHG5 (11743358_a_at) / Fold change /veh PLEKHG5 (11743358_a_at) / RFU ZSCAN30 (11745921_a_at) / Fold change /veh ZSCAN30 (11745921_a_at) / RFU CMKLR1 (11741424_a_at) / Fold change /veh CMKLR1 (11741424_a_at) / RFU LOC101060620 /// MAPK8IP1 (11723275_at) / Fold change /veh LOC101060620 /// MAPK8IP1 (11723275_at) / RFU SPTSSB (11747773_x_at) / Fold change /veh SPTSSB (11747773_x_at) / RFU PRSS12 (11739890_at) / Fold change /veh PRSS12 (11739890_at) / RFU BIN1 (11741810_x_at) / Fold change /veh BIN1 (11741810_x_at) / RFU WNT11 (11732464_a_at) / Fold change /veh WNT11 (11732464_a_at) / RFU C10orf10 (11716521_a_at) / Fold change /veh C10orf10 (11716521_a_at) / RFU C5orf56 (11738089_at) / Fold change /veh C5orf56 (11738089_at) / RFU CYB561 (11721691_x_at) / Fold change /veh CYB561 (11721691_x_at) / RFU ANKRD19P (11752326_a_at) / Fold change /veh ANKRD19P (11752326_a_at) / RFU OR2T12 /// OR2T33 /// OR2T8 (11738714_s_at) / Fold change /veh OR2T12 /// OR2T33 /// OR2T8 (11738714_s_at) / RFU VCAN (11748164_a_at) / Fold change /veh VCAN (11748164_a_at) / RFU JSRP1 (11732532_at) / Fold change /veh JSRP1 (11732532_at) / RFU KRTAP10-11 (11738290_x_at) / Fold change /veh KRTAP10-11 (11738290_x_at) / RFU MYO3A (11730013_a_at) / Fold change /veh MYO3A (11730013_a_at) / RFU EBF3 (11725865_a_at) / Fold change /veh EBF3 (11725865_a_at) / RFU CAMK2N1 (11719241_x_at) / Fold change /veh CAMK2N1 (11719241_x_at) / RFU C5orf56 (11738088_a_at) / Fold change /veh C5orf56 (11738088_a_at) / RFU OLFML3 (11715873_a_at) / Fold change /veh OLFML3 (11715873_a_at) / RFU LOC100653217 /// NTM (11731650_a_at) / Fold change /veh LOC100653217 /// NTM (11731650_a_at) / RFU MAPK11 (11762145_a_at) / Fold change /veh MAPK11 (11762145_a_at) / RFU FIZ1 (11724087_x_at) / Fold change /veh FIZ1 (11724087_x_at) / RFU OASL (11726364_x_at) / Fold change /veh OASL (11726364_x_at) / RFU SOX15 (11748057_x_at) / Fold change /veh SOX15 (11748057_x_at) / RFU CD79A (11719716_a_at) / Fold change /veh CD79A (11719716_a_at) / RFU HIST1H1D (11736915_at) / Fold change /veh HIST1H1D (11736915_at) / RFU CASKIN2 (11723855_a_at) / Fold change /veh CASKIN2 (11723855_a_at) / RFU LOC730098 (11760151_x_at) / Fold change /veh LOC730098 (11760151_x_at) / RFU OR4N2 (11742367_at) / Fold change /veh OR4N2 (11742367_at) / RFU PRRT2 (11749266_a_at) / Fold change /veh PRRT2 (11749266_a_at) / RFU SNX32 (11753110_a_at) / Fold change /veh SNX32 (11753110_a_at) / RFU CDHR5 (11726645_a_at) / Fold change /veh CDHR5 (11726645_a_at) / RFU RCAN1 (11760418_a_at) / Fold change /veh RCAN1 (11760418_a_at) / RFU FAM167A (11723789_a_at) / Fold change /veh FAM167A (11723789_a_at) / RFU FAM26E (11764081_at) / Fold change /veh FAM26E (11764081_at) / RFU ISYNA1 (11749810_s_at) / Fold change /veh ISYNA1 (11749810_s_at) / RFU ACY1 (11761880_at) / Fold change /veh ACY1 (11761880_at) / RFU 11764098_at / Fold change /veh 11764098_at / RFU SAMD14 (11745864_x_at) / Fold change /veh SAMD14 (11745864_x_at) / RFU NPB (11741838_a_at) / Fold change /veh NPB (11741838_a_at) / RFU TMPRSS6 (11731388_a_at) / Fold change /veh TMPRSS6 (11731388_a_at) / RFU KRTAP10-2 (11738614_at) / Fold change /veh KRTAP10-2 (11738614_at) / RFU ARHGAP8 /// PRR5-ARHGAP8 (11727945_x_at) / Fold change /veh ARHGAP8 /// PRR5-ARHGAP8 (11727945_x_at) / RFU KRTAP5-7 /// NADSYN1 (11734609_at) / Fold change /veh KRTAP5-7 /// NADSYN1 (11734609_at) / RFU RASL12 (11751679_a_at) / Fold change /veh RASL12 (11751679_a_at) / RFU CDKN2B (11736163_a_at) / Fold change /veh CDKN2B (11736163_a_at) / RFU PRF1 (11729649_at) / Fold change /veh PRF1 (11729649_at) / RFU, ZNF638 /// ZNF638-IT1 / Fold change vs veh, ZNF638 /// ZNF638-IT1 / RFU, PANK3 / Fold change vs veh, PANK3 / RFU, SH3YL1 / Fold change vs veh, SH3YL1 / RFU, ZEB2 / Fold change vs veh, ZEB2 / RFU, NRIP1 / Fold change vs veh, NRIP1 / RFU, PTTG1IP / Fold change vs veh, PTTG1IP / RFU, CAPN2 / Fold change vs veh, CAPN2 / RFU, MED14 / Fold change vs veh, MED14 / RFU, SNORA58 / Fold change vs veh, SNORA58 / RFU, C1orf63 / Fold change vs veh, C1orf63 / RFU, LRRFIP1 / Fold change vs veh, LRRFIP1 / RFU, NDUFAF7 / Fold change vs veh, NDUFAF7 / RFU, SLC12A2 / Fold change vs veh, SLC12A2 / RFU, IBTK / Fold change vs veh, IBTK / RFU, ESF1 / Fold change vs veh, ESF1 / Fold change vs veh, TMEM50B / RFU, TAOK1 / Fold change vs veh, TAOK1 / RFU, ACBD3 / Fold change vs veh, ACBD3 / RFU, TMA16 / Fold change vs veh, TMA16 / RFU, RWDD3 / Fold change vs veh, RWDD3 / RFU, BCAT1 / Fold change vs veh, BCAT1 / RFU, EDEM3 / Fold change vs veh, EDEM3 / RFU, TMEM33 / Fold change vs veh, TMEM33 / RFU, WDR75 / Fold change vs veh, WDR75 / RFU, AHCTF1 / Fold change vs veh, AHCTF1 / RFU, TFRC / Fold change vs veh, TFRC / RFU, ZDHHC17 / Fold change vs veh, ZDHHC17 / RFU, NOM1 / Fold change vs veh, NOM1 / RFU, ARL8B / Fold change vs veh, ARL8B / RFU, ZBTB11 / Fold change vs veh, ZBTB11 / RFU, TAMM41 / Fold change vs veh, TAMM41 / RFU, KIAA1704 /// LOC100996395 / Fold change vs veh, KIAA1704 /// LOC100996395 / RFU, ING1 / Fold change vs veh, ING1 / RFU, TRMT61B / Fold change vs veh, TRMT61B / RFU, FUBP3 / Fold change vs veh, FUBP3 / RFU, TP53 / Fold change vs veh, TP53 / RFU, TNKS2 / Fold change vs veh, TNKS2 / RFU, ZFP14 / Fold change vs veh, ZFP14 / RFU, ACTR2 / Fold change vs veh, ACTR2 / RFU, PPP3R1 / Fold change vs veh, PPP3R1 / RFU, PIK3R1 / Fold change vs veh, PIK3R1 / RFU, HNRNPA1 / Fold change vs veh, HNRNPA1 / RFU, RNF170 / Fold change vs veh, RNF170 / RFU, ZNF28 / Fold change vs veh, ZNF28 / RFU, RNGTT / Fold change vs veh, RNGTT / RFU, OGT / Fold change vs veh, OGT / RFU, BRD1 / Fold change vs veh, BRD1 / RFU, MARS / Fold change vs veh, MARS / RFU, ZNF655 / Fold change vs veh, ZNF655 / RFU, FAHD1 / Fold change vs veh, FAHD1 / RFU, BDP1 / Fold change vs veh, BDP1 / RFU, LRRCC1 / Fold change vs veh, LRRCC1 / RFU, ARID1A / Fold change vs veh, ARID1A / RFU, ZNF146 / Fold change vs veh, ZNF146 / RFU, ZNF330 / Fold change vs veh, ZNF330 / RFU, GPN3 / Fold change vs veh, GPN3 / RFU, C9orf123 / Fold change vs veh, C9orf123 / RFU, N4BP2L2 / Fold change vs veh, N4BP2L2 / RFU, ARFIP1 / Fold change vs veh, ARFIP1 / RFU, FAM179B / Fold change vs veh, FAM179B / RFU, BCL10 / Fold change vs veh, BCL10 / RFU, UHRF1BP1L / Fold change vs veh, UHRF1BP1L / RFU, BET1 / Fold change vs veh, BET1 / RFU, CNOT2 / Fold change vs veh, CNOT2 / RFU, ZNF268 / Fold change vs veh, ZNF268 / Fold change vs veh, ZNF507 / RFU, DGCR2 / Fold change vs veh, DGCR2 / RFU, WDSUB1 / Fold change vs veh, WDSUB1 / Fold change vs veh, HSP90B1 /// MIR3652 / RFU, ADSS / Fold change vs veh, ADSS / RFU, GK / Fold change vs veh, GK / RFU, ZNF148 / Fold change vs veh, ZNF148 / RFU, TAF9 / Fold change vs veh, TAF9 / RFU, SLC1A5 / Fold change vs veh, SLC1A5 / RFU, SLMO2 / Fold change vs veh, SLMO2 / RFU, ABCC4 / Fold change vs veh, ABCC4 / RFU, LOC101060439 /// RAP1B / Fold change vs veh, LOC101060439 /// RAP1B / RFU, RFX7 / Fold change vs veh, RFX7 / RFU, GTPBP10 / Fold change vs veh, GTPBP10 / RFU, CNEP1R1 / Fold change vs veh, CNEP1R1 / RFU, BIVM-ERCC5 /// ERCC5 / Fold change vs veh, BIVM-ERCC5 /// ERCC5 / RFU, ILF3 / Fold change vs veh, ILF3 / RFU 11762660_at / Fold change /veh 11762660_at / RFU VCAN (11757783_s_at) / Fold change /veh VCAN (11757783_s_at) / RFU DDX43 (11728927_at) / Fold change /veh DDX43 (11728927_at) / RFU KRT8 (11758188_x_at) / Fold change /veh KRT8 (11758188_x_at) / RFU NKD1 (11759106_at) / Fold change /veh NKD1 (11759106_at) / RFU SRD5A1 (11742802_a_at) / Fold change /veh SRD5A1 (11742802_a_at) / RFU TPSAB1 /// TPSB2 (11721975_s_at) / Fold change /veh TPSAB1 /// TPSB2 (11721975_s_at) / RFU GSTM3 (11746129_a_at) / Fold change /veh GSTM3 (11746129_a_at) / RFU IL23R (11737362_x_at) / Fold change /veh IL23R (11737362_x_at) / RFU TMEM51 (11727254_a_at) / Fold change /veh TMEM51 (11727254_a_at) / RFU PIWIL2 (11732686_x_at) / Fold change /veh PIWIL2 (11732686_x_at) / RFU ORM1 (11744905_x_at) / Fold change /veh ORM1 (11744905_x_at) / RFU CCDC152 (11743942_at) / Fold change /veh CCDC152 (11743942_at) / RFU ECM1 (11717891_a_at) / Fold change /veh ECM1 (11717891_a_at) / RFU IL23R (11748794_a_at) / Fold change /veh IL23R (11748794_a_at) / RFU TNFAIP8L3 (11732012_x_at) / Fold change /veh TNFAIP8L3 (11732012_x_at) / RFU MBOAT4 (11741988_at) / Fold change /veh MBOAT4 (11741988_at) / RFU 11764193_at / Fold change /veh 11764193_at / RFU TMEM53 (11763286_at) / Fold change /veh TMEM53 (11763286_at) / RFU MAGEB2 (11727129_at) / Fold change /veh MAGEB2 (11727129_at) / RFU TMEM200A (11744735_a_at) / Fold change /veh TMEM200A (11744735_a_at) / RFU CCDC152 (11751479_a_at) / Fold change /veh CCDC152 (11751479_a_at) / RFU FAM211A (11726209_a_at) / Fold change /veh FAM211A (11726209_a_at) / RFU RGS16 (11746705_a_at) / Fold change /veh RGS16 (11746705_a_at) / RFU VCAN (11755009_s_at) / Fold change /veh VCAN (11755009_s_at) / RFU RHOB (11743442_s_at) / Fold change /veh RHOB (11743442_s_at) / RFU RGS16 (11720943_a_at) / Fold change /veh RGS16 (11720943_a_at) / RFU RGS16 (11720944_at) / Fold change /veh RGS16 (11720944_at) / RFU, VPS4B / Fold change vs veh, VPS4B / RFU, CREB1 / Fold change vs veh, CREB1 / RFU, DNAJC13 / Fold change vs veh, DNAJC13 / RFU, GNAQ / Fold change vs veh, GNAQ / RFU, CDK5R1 / Fold change vs veh, CDK5R1 / RFU, ZRANB3 / Fold change vs veh, ZRANB3 / RFU, CUL4A / Fold change vs veh, CUL4A / RFU, CCNY / Fold change vs veh, CCNY / RFU, UFL1 / Fold change vs veh, UFL1 / RFU, COG3 / Fold change vs veh, COG3 / RFU, DIAPH2 / Fold change vs veh, DIAPH2 / RFU, SKA2 / Fold change vs veh, SKA2 / RFU, AFF3 / Fold change vs veh, AFF3 / RFU, LMF1 / Fold change vs veh, LMF1 / RFU, IPO11 / Fold change vs veh, IPO11 / RFU, DFFB / Fold change vs veh, DFFB / RFU, FOXP1 / Fold change vs veh, FOXP1 / RFU, CARD8 / Fold change vs veh, CARD8 / RFU, STRN3 / Fold change vs veh, STRN3 / RFU, ADK / Fold change vs veh, ADK / RFU, RASSF2 / Fold change vs veh, RASSF2 / RFU, WIPF1 / Fold change vs veh, WIPF1 / RFU, LARP1B / Fold change vs veh, LARP1B / RFU, RASA1 / Fold change vs veh, RASA1 / RFU, RB1 / Fold change vs veh, RB1 / RFU, PPFIA1 / Fold change vs veh, PPFIA1 / RFU, MAT2A / Fold change vs veh, MAT2A / RFU, CCT5 / Fold change vs veh, CCT5 / RFU, WDR92 / Fold change vs veh, WDR92 / RFU, CUX1 / Fold change vs veh, CUX1 / RFU, TTC7A / Fold change vs veh, TTC7A / RFU, TMEM135 / Fold change vs veh, TMEM135 / RFU, DEPTOR / Fold change vs veh, DEPTOR / RFU, CPM / Fold change vs veh, CPM / RFU, DNAJB6 / Fold change vs veh, DNAJB6 / RFU, CACNA2D3 / Fold change vs veh, CACNA2D3 / RFU, DTX4 / Fold change vs veh, DTX4 / RFU, TFCP2 / Fold change vs veh, TFCP2 / RFU, GMCL1 /// GMCL1P1 / Fold change vs veh, GMCL1 /// GMCL1P1 / RFU, AEBP2 / Fold change vs veh, AEBP2 / RFU, SNHG1 /// SNORD22 /// SNORD25 /// SNORD26 /// SNORD27 /// SNORD28 /// SNORD29 /// SNORD31 / Fold change vs veh, SNHG1 /// SNORD22 /// SNORD25 /// SNORD26 /// SNORD27 /// SNORD28 /// SNORD29 /// SNORD31 / Fold change (Aza/veh), C12orf56 (ProbeSet 11735607_a_at) / Fold change (ACY-1035/veh), C12orf56 (ProbeSet 11735607_a_at) / Fold change (Aza/veh), FGFR1OP (ProbeSet 11751329_s_at) / Fold change (ACY-1035/veh), FGFR1OP (ProbeSet 11751329_s_at) / Fold change (Aza/veh), VPS36 (ProbeSet 11739960_a_at) / Fold change (ACY-1035/veh), VPS36 (ProbeSet 11739960_a_at) / RFU SYPL1 (11715823_x_at) / Fold change /veh SYPL1 (11715823_x_at) / RFU IGFBP7 (11715501_s_at) / Fold change /veh IGFBP7 (11715501_s_at) / RFU REEP3 (11722064_at) / Fold change /veh REEP3 (11722064_at) / RFU IGLL1 (11728026_x_at) / Fold change /veh IGLL1 (11728026_x_at): dose or concentration left out as unconfirmed
Conditions: MV-4-11 cells, 48 hours

**Q.** How did the “RFU ABCC12 (11746883_a_at)” value turn out when `Nc1ccc(-c2cccs2)cc1NC(=O)c1ccc2c(c1)cc(C1CC1)n2CCN1CCOCC1` [ACY-1035] was run?
**A.** 8.23 RFU
